In ChEMBL document CHEMBL1135425, “Antitumor agents. 213. Modeling of epipodophyllotoxin derivatives using variable selection k nearest neighbor QSAR method” (J Med Chem, 2002) one finds Complex formation data, which are given here for 42 compounds.

Structures are written as SMILES. Values joined by “and” are separate entries in the source; they are usually repeats but may differ in a detail not shown here. Identical values can stand only once.

One assay deals with Nucleic Acid. As to the kind of experiment: Ability to form intracellular covalent DNA topoisomerase II complex; activity expressed as the percentage of cellular protein-DNA complex formed (exp-2). It is filed as functional, cell-based.
On to `COc1cc([C@@H]2c3cc4c(cc3C(Nc3ccccc3)[C@H]3COC(=O)[C@H]23)OCO4)cc(O)c1O` (stereo partly drawn), for which the Complex formation amounted to 128%.

A further assay has as its target T1, DNA topoisomerase II (Homo sapiens) (UniProt P11388+Q02880). As to the kind of experiment: Ability to form intracellular covalent DNA topoisomerase II complex; activity expressed as the percentage of cellular protein-DNA complex formed (exp-1). In kind it is cell-based.
The compound `COc1cc([C@@H]2c3cc4c(cc3C(Nc3ccccc3)[C@H]3COC(=O)[C@H]23)OCO4)cc(O)c1O` (stereo partly drawn) displayed a Complex formation of 105%.

In the next assay the target is T1, DNA topoisomerase II (Homo sapiens). As to the kind of experiment: Percentage of intracellular covalent DNA-topoisomerase II complexes formed. In kind it is cell-based.
On to `COc1cc([C@@H]2c3cc4c(cc3[C@@H](OC(=O)c3ccc(N)cc3)[C@H]3COC(=O)[C@H]23)OCO4)cc(OC)c1O`, for which the Complex formation came to 94%.

`COc1cc([C@@H]2c3cc(O)c(O)cc3[C@@H](Nc3ccccc3)[C@H]3COC(=O)[C@H]23)cc(OC)c1O` had a Complex formation of 4%.

Compound `COc1cc([C@@H]2c3cc4c(cc3[C@@H](OC(=O)c3ccccc3)[C@H]3COC(=O)[C@H]23)OCO4)cc(OC)c1O` returned a Complex formation of 94%.

`COc1cc([C@@H]2c3cc4c(cc3[C@@H](OC(=O)c3cccc(N)c3)[C@H]3COC(=O)[C@H]23)OCO4)cc(OC)c1O` returned a Complex formation of 100%.

The compound `COc1cc([C@@H]2c3cc(O)c(O)cc3C(Nc3ccc(F)cc3)[C@H]3COC(=O)[C@H]23)cc(OC)c1OC` (stereo partly drawn) registered a Complex formation of 11%.

The compound `COc1cc2c(cc1OC)[C@@H](c1cc(OC)c(OC)c(OC)c1)[C@H]1C(=O)OC[C@@H]1C2Nc1ccc(C#N)cc1` (stereo partly drawn) showed a Complex formation of 12%.

The compound `COc1cc([C@@H]2c3cc4c(cc3[C@@H](NC(=O)c3ccc(F)cc3)[C@H]3COC(=O)[C@H]23)OCO4)cc(OC)c1O` showed a Complex formation of 117%.

Consider `COc1cc([C@@H]2c3cc4c(cc3[C@@H](NC(=O)c3ccc(OC(C)=O)cc3)[C@H]3COC(=O)[C@H]23)OCO4)cc(OC)c1O`, for which the Complex formation worked out at 137%.

With `COc1cc([C@@H]2c3cc4c(cc3[C@@H](Nc3ccccn3)[C@H]3COC(=O)[C@H]23)OCO4)cc(OC)c1O`, the Complex formation amounted to 97%.

As for `COc1cc([C@@H]2c3cc4c(cc3[C@@H](Nc3cccc(O)c3)[C@H]3COC(=O)[C@H]23)OCO4)cc(OC)c1O`, the Complex formation was determined as 290%.

In turn, `COC(=O)c1cccc(NC2c3cc4c(cc3[C@@H](c3cc(O)c(O)c(OC)c3)[C@H]3C(=O)OC[C@H]23)OCO4)c1` (stereo partly drawn) returned a Complex formation of 94%.

As for `COc1cc([C@@H]2c3cc4c(cc3[C@@H](NC(=O)c3ccc(N)cc3)[C@H]3COC(=O)[C@H]23)OCO4)cc(OC)c1O`, the Complex formation came to 120%.

With `COc1cc2c(cc1OC)[C@@H](c1cc(OC)c(OC)c(OC)c1)[C@H]1C(=O)OC[C@@H]1C2Nc1ccc(F)cc1` (stereo partly drawn), the Complex formation is 8%.

As to `CCOC(=O)c1ccc(NC2c3cc(O)c(O)cc3[C@@H](c3cc(OC)c(OC)c(OC)c3)[C@H]3C(=O)OC[C@H]23)cc1` (stereo partly drawn), the Complex formation turned out to be 22%.

Compound `COc1cc([C@@H]2c3cc4c(cc3[C@@H](NC(=O)c3ccccc3F)[C@H]3COC(=O)[C@H]23)OCO4)cc(OC)c1O` displayed a Complex formation of 128%.

The compound `COc1ccc(N[C@@H]2c3cc4c(cc3[C@@H](c3cc(OC)c(O)c(OC)c3)[C@H]3C(=O)OC[C@@H]32)OCO4)c([N+](=O)[O-])c1` came in with a Complex formation of 15%.

The compound `COc1cc([C@@H]2c3cc4c(cc3[C@@H](Nc3cnc5ccccc5c3)[C@H]3COC(=O)[C@H]23)OCO4)cc(OC)c1O` returned a Complex formation of 123%.

`COc1cc(CN[C@@H]2c3cc4c(cc3[C@@H](c3cc(OC)c(O)c(OC)c3)[C@H]3C(=O)OC[C@@H]32)OCO4)cc(OC)c1` yielded a Complex formation of 144%.

`COc1cc([C@@H]2c3cc4c(cc3[C@@H](Nc3ccc(N5CCOCC5)cc3)[C@H]3COC(=O)[C@H]23)OCO4)cc(OC)c1O` registered a Complex formation of 140%.

As for `COc1cc([C@@H]2c3cc4c(cc3[C@@H](Nc3cc(OC)c(OC)c(OC)c3)[C@H]3COC(=O)[C@H]23)OCO4)cc(OC)c1O`, the Complex formation was determined as 47%.

Turning to `COc1cc([C@@H]2c3cc4c(cc3[C@@H](NCCN(C)C)[C@H]3COC(=O)[C@H]23)OCO4)cc(OC)c1O`, the Complex formation was 183% and 203%.

In turn, `COc1cc([C@@H]2c3cc4c(cc3[C@@H](N)[C@H]3COC(=O)[C@H]23)OCO4)cc(OC)c1O` registered a Complex formation of 36.4%.

On to `CCOC(=O)CC[C@H](NC(=O)c1ccc(N[C@@H]2c3cc4c(cc3[C@@H](c3cc(OC)c(O)c(OC)c3)[C@H]3C(=O)OC[C@@H]32)OCO4)cc1)C(=O)OCC`, for which the Complex formation was found to be 83%.

For `COc1cc([N+](=O)[O-])c(OC)cc1N[C@@H]1c2cc3c(cc2[C@@H](c2cc(OC)c(O)c(OC)c2)[C@H]2C(=O)OC[C@@H]21)OCO3`, the Complex formation came to 4.4%.

Consider `COc1cc([C@@H]2c3cc4c(cc3[C@@H](NCCCO)[C@H]3COC(=O)[C@H]23)OCO4)cc(OC)c1O`, for which the Complex formation came to 89.2%.

Take `COc1cc([C@@H]2c3cc4c(cc3C(Nc3ccc(CC#N)cc3)[C@H]3COC(=O)[C@H]23)OCO4)cc(O)c1O` (stereo partly drawn): the Complex formation was 109%.

Compound `COc1cc([C@@H]2c3cc4c(cc3[C@@H](Nc3cccc(CO)c3)[C@H]3COC(=O)[C@H]23)OCO4)cc(OC)c1O` came in with a Complex formation of 235%.

`COc1cc([C@@H]2c3cc4c(cc3[C@@H](Nc3cccc(Cl)c3)[C@H]3COC(=O)[C@H]23)OCO4)cc(OC)c1O` showed a Complex formation of 51%.

Turning to `COc1cc([C@@H]2c3cc4c(cc3[C@@H](Nc3ccc([N+](=O)[O-])cc3)[C@H]3COC(=O)[C@H]23)OCO4)cc(OC)c1O`, the Complex formation came out at 323%.

`COc1cc([C@@H]2c3cc4c(cc3[C@@H](Nc3ccccc3)[C@H]3COC(=O)[C@H]23)OCO4)cc(OC)c1O` displayed a Complex formation of 243%.

For `COc1cc([C@@H]2c3cc4c(cc3[C@@H](NC(=O)Nc3ccc(Cl)cc3)[C@H]3COC(=O)[C@H]23)OCO4)cc(OC)c1O`, the Complex formation turned out to be 125%.

With `COc1cc2c(cc1OC)[C@@H](c1cc(OC)c(O)c(OC)c1)[C@H]1C(=O)OC[C@@H]1C2Nc1ccc(C#N)cc1` (stereo partly drawn), the Complex formation is 125%.

Turning to `COC(=O)c1ccc(NC2c3cc4c(cc3[C@@H](c3cc(O)c(O)c(OC)c3)[C@H]3C(=O)OC[C@H]23)OCO4)cc1` (stereo partly drawn), the Complex formation is 175%.

Consider `COc1cc([C@@H]2c3cc4c(cc3[C@@H](Nc3ccc(NC(=O)C56CCC(C)(C(=O)O5)C6(C)C)cc3)[C@H]3COC(=O)[C@H]23)OCO4)cc(OC)c1O` (stereo partly drawn), for which the Complex formation was determined as 88%.

Compound `COc1cc([C@@H]2c3cc4c(cc3[C@@H](Oc3ccc(O)cc3)[C@H]3COC(=O)[C@H]23)OCO4)cc(OC)c1O` had a Complex formation of 34%.

`COc1cc([C@@H]2c3cc4c(cc3C(Nc3ccc(F)cc3)[C@H]3COC(=O)[C@H]23)OCO4)cc(O)c1O` (stereo partly drawn) displayed a Complex formation of 117%.

The compound `COc1cc([C@@H]2c3cc4c(cc3[C@@H](NC(=O)c3cccc(F)c3)[C@H]3COC(=O)[C@H]23)OCO4)cc(OC)c1O` had a Complex formation of 116%.

As for `COc1cc([C@@H]2c3cc4c(cc3[C@@H](NC(C)C)[C@H]3COC(=O)[C@H]23)OCO4)cc(OC)c1O`, the Complex formation was determined as 109%.

`COc1cc(N[C@@H]2c3cc4c(cc3[C@@H](c3cc(OC)c(O)c(OC)c3)[C@H]3C(=O)OC[C@@H]32)OCO4)c(C)cc1[N+](=O)[O-]` yielded a Complex formation of 3.5%.

For the compound `COc1cc([C@@H]2c3cc4c(cc3C(Nc3cccc([N+](=O)[O-])c3)[C@H]3COC(=O)[C@H]23)OCO4)cc(O)c1O` (stereo partly drawn), the Complex formation is 75%.

`COc1cc([C@@H]2c3cc4c(cc3[C@@H](NC[C@H](C)O)[C@H]3COC(=O)[C@H]23)OCO4)cc(OC)c1O` returned a Complex formation of 167%.
